In patent publication US12377104B1, “Methods for treating a fatty liver disease” (Madrigal Pharmaceuticals, Inc., priority 2024, dated 2025):

Tested on: adults with biopsy-confirmed NASH
Experiment: MAESTRO-NASH: liver enzymes, imaging and biomarkers (MRI-PDFF, CAP, VCTE, MRE, liver and spleen volume, ELF)
Assay type: in vivo, human
[1] = 100 mg, wk 48, baseline ALT ≥30 U per liter
[2] = 100 mg, F1B, responder analysis
[3] = 100 mg, week 52, baseline ELF score ≥9.8
[4] = 100 mg, week 52, baseline PIIINP ≥9 ng/mL
[5] = 100 mg, week 52, baseline TIMP-I ≥240 ng/ml
[6] = 100 mg, week 52, baseline hyaluronic acid ≥50 ng/ml

CC(C)c1cc(Oc2c(Cl)cc(-n3nc(C#N)c(=O)[nH]c3=O)cc2Cl)n[nH]c1=O [Resmetirom, 2-(3,5-dichloro-4-((5-isopropyl-6-oxo-1,6-dihydropyridazin-3-yl)oxy)phenyl)-3,5-dioxo-2,3,4,5-tetrahydro-1,2,4-triazine-6-carbonitrile]
Hyaluronic acid, LS mean CFB difference from PBO (80 mg, week 52, baseline hyaluronic acid ≥50 ng/ml): 0.58 µg/L | Alanine aminotransferase level, difference from placebo (100 mg, wk 48): −26.3 percentage points | Aspartate aminotransferase level, difference from placebo (100 mg, wk 48): −25.4 percentage points | γ-Glutamyltransferase level, difference from placebo (100 mg, wk 48): −35.2 percentage points | Alanine aminotransferase level, least-squares mean percent change from baseline [1]: −33.2 ± 3.9% | Aspartate aminotransferase level, least-squares mean percent change from baseline [1]: −28.3 ± 3.9% | γ-Glutamyltransferase level, least-squares mean percent change from baseline [1]: −31.9 ± 6.3% | MRI-PDFF, difference from placebo (100 mg, wk 52): −37.9 percentage points | MRI-PDFF, least-squares mean percent change from baseline (100 mg, wk 52): −46.6 ± 2.8% | MRE ≥19% increase from BL, % of patients [2]: (20.0) % | MRE ≥19% increase from BL, no. of patients [2]: 1 | MRE ≥19% reduction from BL, no. of patients [2]: 0 | VCTE/LSM improving >25%, % of patients [2]: (70.0) % | VCTE/LSM improving >25%, no. of patients [2]: 7 | VCTE/LSM improving ≥30%, % of patients [2]: (60.0) % | VCTE/LSM improving ≥30%, no. of patients [2]: 6 | VCTE/LSM worsening ≥25%, no. of patients [2]: 0 | VCTE/LSM worsening ≥30%, no. of patients [2]: 0 | FibroScan VCTE/LSM, LS mean CFB (100 mg, F1B, week 52): −3.7 kPa | FibroScan VCTE/LSM, LS mean CFB difference from PBO (100 mg, F1B, week 52): −3.1 kPa | MRE, LS mean % CFB (100 mg, F1B, week 52): 2.4% | MRE, LS mean % CFB difference from PBO (100 mg, F1B, week 52): −5.1% | MRE ≥19% increase from BL, no. of patients (100 mg, F2, responder analysis): 0 | MRE ≥19% reduction from BL, % of patients (100 mg, F2, responder analysis): (22.7) % | MRE ≥19% reduction from BL, no. of patients (100 mg, F2, responder analysis): 5 | VCTE/LSM improving ≥25%, % of patients (100 mg, F2, responder analysis): (50.0) % | VCTE/LSM improving ≥25%, no. of patients (100 mg, F2, responder analysis): 38 | VCTE/LSM improving ≥30%, % of patients (100 mg, F2, responder analysis): (40.8) % | VCTE/LSM improving ≥30%, no. of patients (100 mg, F2, responder analysis): 31 | VCTE/LSM worsening ≥25%, % of patients (100 mg, F2, responder analysis): (10.5) % | VCTE/LSM worsening ≥25%, no. of patients (100 mg, F2, responder analysis): 8 | VCTE/LSM worsening ≥30%, % of patients (100 mg, F2, responder analysis): (6.6) % | VCTE/LSM worsening ≥30%, no. of patients (100 mg, F2, responder analysis): 5 | FibroScan VCTE/LSM, LS mean CFB (100 mg, F2, week 52): −2.4 kPa | FibroScan VCTE/LSM, LS mean CFB difference from PBO (100 mg, F2, week 52): −1.2 kPa | MRE, LS mean % CFB (100 mg, F2, week 52): 1.1% | MRE, LS mean % CFB difference from PBO (100 mg, F2, week 52): 0.99% | MRE ≥19% increase from BL, % of patients (100 mg, F3, responder analysis): (8.1) % | MRE ≥19% increase from BL, no. of patients (100 mg, F3, responder analysis): 7 | MRE ≥19% reduction from BL, % of patients (100 mg, F3, responder analysis): (31.4) % | MRE ≥19% reduction from BL, no. of patients (100 mg, F3, responder analysis): 27 | VCTE/LSM improving ≥25%, % of patients (100 mg, F3, responder analysis): (47.9) % | VCTE/LSM improving ≥25%, no. of patients (100 mg, F3, responder analysis): 80 | VCTE/LSM improving ≥30%, % of patients (100 mg, F3, responder analysis): (38.9) % | VCTE/LSM improving ≥30%, no. of patients (100 mg, F3, responder analysis): 65 | VCTE/LSM worsening ≥25%, % of patients (100 mg, F3, responder analysis): (10.8) % | VCTE/LSM worsening ≥25%, no. of patients (100 mg, F3, responder analysis): 18 | VCTE/LSM worsening ≥30%, % of patients (100 mg, F3, responder analysis): (10.2) % | VCTE/LSM worsening ≥30%, no. of patients (100 mg, F3, responder analysis): 17 | FibroScan VCTE/LSM, LS mean CFB (100 mg, F3, week 52): −3.2 kPa | FibroScan VCTE/LSM, LS mean CFB difference from PBO (100 mg, F3, week 52): −2.1 kPa | MRE, LS mean % CFB (100 mg, F3, week 52): 5.2% | MRE, LS mean % CFB difference from PBO (100 mg, F3, week 52): −4.8% | Liver volume, LS mean % CFB (100 mg, week 16): -21.4% | Liver volume, LS mean % CFB difference from PBO (100 mg, week 16): −21.1% | MRI-PDFF % fat fraction, LS mean % CFB (100 mg, week 16): 42.1% | MRI-PDFF % fat fraction, LS mean % CFB difference from PBO (100 mg, week 16): −35.7% | Spleen volume, LS mean % CFB (100 mg, week 16): 3.6% | Spleen volume, LS mean % CFB difference from PBO (100 mg, week 16): −5.0% | ALT, LS mean % CFB (100 mg, week 48): −33.2% | ALT, LS mean % CFB difference from PBO (100 mg, week 48): −26.3% | ALT, LS mean CFB (100 mg, week 48): 24.8 U/L | AST, LS mean % CFB (100 mg, week 48): 28.3% | AST, LS mean % CFB difference from PBO (100 mg, week 48): −25.4% | AST, LS mean CFB (100 mg, week 48): 15.8 U/L | GGT, LS mean % CFB (100 mg, week 48): -31.9% | GGT, LS mean % CFB difference from PBO (100 mg, week 48): −35.2% | GGT, LS mean CFB (100 mg, week 48): -32.7 U/L | Adiponectin, LS mean CFB (100 mg, week 52): 1.1 µg/mL | Adiponectin, LS mean CFB difference from PBO (100 mg, week 52): 1.3 µg/mL | CK-18, LS mean CFB (100 mg, week 52): -310 U/L | CK-18, LS mean CFB difference from PBO (100 mg, week 52): −165.7 U/L | FibroScan CAP, LS mean CFB (100 mg, week 52): −41.3 dB/m | FibroScan CAP, LS mean CFB difference from PBO (100 mg, week 52): −26.9 dB/m | Liver volume, LS mean % CFB (100 mg, week 52): -25.8% | Liver volume, LS mean % CFB difference from PBO (100 mg, week 52): 24.8% | MRI-PDFF % fat fraction, LS mean % CFB (100 mg, week 52): 46.6% | MRI-PDFF % fat fraction, LS mean % CFB difference from PBO (100 mg, week 52): −37.9% | Spleen volume, LS mean % CFB (100 mg, week 52): −6.1% | Spleen volume, LS mean % CFB difference from PBO (100 mg, week 52): −9.3% | Enhanced liver fibrosis score, LS mean CFB [3]: −0.35 | Enhanced liver fibrosis score, LS mean CFB difference from PBO [3]: −0.24 | PIIINP, LS mean % CFB [4]: -10.3% | PIIINP, LS mean % CFB difference from PBO [4]: −9.3% | PIIINP, LS mean CFB [4]: -2.1 ng/mL | PIIINP, LS mean CFB difference from PBO [4]: -1.4 ng/mL | TIMP-I, LS mean % CFB [5]: −10.1% | TIMP-I, LS mean % CFB difference from PBO [5]: −6.5% | TIMP-I, LS mean CFB [5]: -35.7 ng/mL | TIMP-I, LS mean CFB difference from PBO [5]: -22.3 ng/mL | Hyaluronic acid, LS mean % CFB [6]: 11.8% | Hyaluronic acid, LS mean % CFB difference from PBO [6]: −13.0% | Hyaluronic acid, LS mean CFB [6]: -2.9 µg/L | Hyaluronic acid, LS mean CFB difference from PBO [6]: -3.5 µg/L
